Experimental data from PMC9221546, “New Phenylglycinamide Derivatives with Hybrid Structure as Candidates for New Broad-Spectrum Anticonvulsants” (Cells, 2022).

Legend:
[1] = biological target: T1, Cav1.2 (h) calcium ion channel (Homo sapiens, UniProt Q13936); assay: Cav1.2 (h) calcium ion channel cell-based antagonist calcium flux assay; details: HEK293, human recombinant HEK-293 cell, read-out: % Inhibition of control agonist response, Cav1.2 calcium flux
T1 construct: Eurofins
Procedure: (§1) Binding/functional studies were carried out commercially in Eurofins Laboratories (Poitiers, France) and Eurofins Panlabs Discovery Services Taiwan, Ltd. (New Taipei City, Taiwan) using testing procedures that were reported previously (for details see Table S2).
(§2) Table S2. Radioligand binding and functional assays. […]
TRPV1 (VR1) (h) (antagonist effect)
Cav1.2 (L-type) (h) calcium ion channel cell-based antagonist calcium flux assay
(§3) Assays were performed commercially in Eurofins Laboratories (Poitiers, France) or Eurofins Panlabs Discovery
(§4) Services Taiwan, Ltd. (New Taipei City, Taiwan). […]

recombinant human CYP2C9 = biological target: T2, recombinant human CYP2C9 (Homo sapiens, UniProt P11712); assay: CYP2C9 P450-Glo luminescent assay; assay type: in vitro ADME
T2 construct: purchased Promega (Madison, WI, USA)
Procedure: The risk of potential DDIs was predicted with use of luminescent CYP3A4, 2D6, and 2C9 P450-Glo assays (Figure 6). […] However, such an effect was also observed in our previous studies for other pyrrolidine-2,5-dione derivatives. […] However, the potential risk of DDI of 60 was still assessed as very low, and was compared to the selective CYP2C9 inhibitor sulfaphenazole (Figure 6C).
The data were analyzed with one-way ANOVA, followed by Bonferroni’s Multiple Comparison Post Test (Graph Pad Prism 8.0.1 software, San Diego, CA, USA)): * p < 0.05, ** p < 0.01, *** p < 0.001 **** p < 0.0001. The compounds were examined in triplicate.

[2] = biological target: T3, Calcium Cav1.2 channels (dihydropyridine site) (Homo sapiens, UniProt Q13936); assay: Calcium Cav1.2 channel binding (dihydropyridine site, antagonist radioligand); details: 10 µM; human recombinant HEK-293 cell; read-out: % Inhibition of Control Specific Binding, Cav1.2 (dihydropyridine site)
T3 construct: host or cells: HEK-293
T3 sequence (Q13936 whole entry): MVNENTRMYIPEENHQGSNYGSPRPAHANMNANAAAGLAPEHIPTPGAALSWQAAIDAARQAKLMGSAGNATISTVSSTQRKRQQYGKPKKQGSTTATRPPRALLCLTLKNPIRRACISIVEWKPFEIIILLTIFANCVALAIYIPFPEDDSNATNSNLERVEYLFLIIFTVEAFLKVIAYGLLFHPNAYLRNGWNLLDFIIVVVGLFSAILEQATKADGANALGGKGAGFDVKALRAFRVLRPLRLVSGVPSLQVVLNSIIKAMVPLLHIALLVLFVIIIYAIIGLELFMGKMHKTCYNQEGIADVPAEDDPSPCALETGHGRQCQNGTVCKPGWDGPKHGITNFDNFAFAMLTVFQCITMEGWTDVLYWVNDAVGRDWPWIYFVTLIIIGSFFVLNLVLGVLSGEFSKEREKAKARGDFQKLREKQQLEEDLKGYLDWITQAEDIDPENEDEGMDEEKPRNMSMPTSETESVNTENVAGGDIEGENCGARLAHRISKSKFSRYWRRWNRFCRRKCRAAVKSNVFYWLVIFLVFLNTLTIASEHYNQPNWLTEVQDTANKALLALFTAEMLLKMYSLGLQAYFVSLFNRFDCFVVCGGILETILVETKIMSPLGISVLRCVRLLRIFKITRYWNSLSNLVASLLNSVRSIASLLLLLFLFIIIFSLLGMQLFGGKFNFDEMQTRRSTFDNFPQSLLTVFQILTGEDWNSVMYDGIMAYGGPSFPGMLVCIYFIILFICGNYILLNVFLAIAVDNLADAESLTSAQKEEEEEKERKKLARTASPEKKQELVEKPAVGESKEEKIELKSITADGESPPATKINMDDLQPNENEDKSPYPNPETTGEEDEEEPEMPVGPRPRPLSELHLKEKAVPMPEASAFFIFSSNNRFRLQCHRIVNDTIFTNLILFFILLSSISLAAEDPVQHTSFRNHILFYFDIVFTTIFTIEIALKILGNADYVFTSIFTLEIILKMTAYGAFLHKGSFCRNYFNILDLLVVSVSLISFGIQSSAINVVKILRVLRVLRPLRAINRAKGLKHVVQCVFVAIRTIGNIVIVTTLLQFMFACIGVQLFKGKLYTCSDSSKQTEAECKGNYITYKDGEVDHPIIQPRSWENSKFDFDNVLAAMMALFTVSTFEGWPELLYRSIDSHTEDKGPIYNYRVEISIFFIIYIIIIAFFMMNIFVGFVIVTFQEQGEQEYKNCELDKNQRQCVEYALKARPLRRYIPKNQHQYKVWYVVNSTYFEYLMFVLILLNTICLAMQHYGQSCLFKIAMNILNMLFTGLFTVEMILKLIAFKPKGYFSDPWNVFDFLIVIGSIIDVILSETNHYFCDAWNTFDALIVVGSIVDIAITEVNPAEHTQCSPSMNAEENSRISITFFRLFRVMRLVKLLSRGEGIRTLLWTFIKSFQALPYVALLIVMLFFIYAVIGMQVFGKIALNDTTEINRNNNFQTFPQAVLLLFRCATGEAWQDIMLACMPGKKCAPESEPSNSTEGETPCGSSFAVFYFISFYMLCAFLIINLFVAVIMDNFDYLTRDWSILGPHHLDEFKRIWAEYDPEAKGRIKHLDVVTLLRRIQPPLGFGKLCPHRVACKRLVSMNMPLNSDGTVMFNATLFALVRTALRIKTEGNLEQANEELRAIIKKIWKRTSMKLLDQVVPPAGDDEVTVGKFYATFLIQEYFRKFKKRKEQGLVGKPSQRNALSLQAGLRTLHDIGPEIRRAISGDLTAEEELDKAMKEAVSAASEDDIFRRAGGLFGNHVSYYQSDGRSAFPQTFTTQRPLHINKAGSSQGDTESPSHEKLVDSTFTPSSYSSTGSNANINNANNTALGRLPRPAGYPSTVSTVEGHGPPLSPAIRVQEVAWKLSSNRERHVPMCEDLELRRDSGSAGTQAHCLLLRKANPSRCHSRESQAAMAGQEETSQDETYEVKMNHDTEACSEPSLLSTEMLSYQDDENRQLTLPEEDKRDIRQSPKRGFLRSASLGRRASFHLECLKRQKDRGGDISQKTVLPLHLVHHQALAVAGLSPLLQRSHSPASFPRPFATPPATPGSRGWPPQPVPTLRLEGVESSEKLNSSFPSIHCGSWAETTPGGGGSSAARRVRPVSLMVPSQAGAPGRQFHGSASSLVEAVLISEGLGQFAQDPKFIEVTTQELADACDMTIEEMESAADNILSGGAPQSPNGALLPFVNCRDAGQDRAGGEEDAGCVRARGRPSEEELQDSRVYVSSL
T3 sequence (Q08289 whole entry partner): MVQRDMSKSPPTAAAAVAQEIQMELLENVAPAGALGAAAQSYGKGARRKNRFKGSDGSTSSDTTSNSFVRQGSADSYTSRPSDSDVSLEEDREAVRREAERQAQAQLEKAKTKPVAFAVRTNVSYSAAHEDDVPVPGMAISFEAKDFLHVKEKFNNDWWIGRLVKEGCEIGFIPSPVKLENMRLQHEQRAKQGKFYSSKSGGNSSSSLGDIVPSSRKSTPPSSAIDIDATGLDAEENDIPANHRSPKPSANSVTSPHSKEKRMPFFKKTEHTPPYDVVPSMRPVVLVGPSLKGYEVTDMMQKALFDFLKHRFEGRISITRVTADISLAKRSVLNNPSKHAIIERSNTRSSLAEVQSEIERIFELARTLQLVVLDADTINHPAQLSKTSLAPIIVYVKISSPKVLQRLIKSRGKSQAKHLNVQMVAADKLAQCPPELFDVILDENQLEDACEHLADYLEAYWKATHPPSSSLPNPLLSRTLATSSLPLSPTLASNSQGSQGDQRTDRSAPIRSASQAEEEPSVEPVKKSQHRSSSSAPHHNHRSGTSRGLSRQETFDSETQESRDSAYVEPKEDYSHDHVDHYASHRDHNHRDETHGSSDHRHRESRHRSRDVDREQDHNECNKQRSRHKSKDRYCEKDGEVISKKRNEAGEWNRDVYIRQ
T3 sequence (P54289 25-956 partner limits assumed): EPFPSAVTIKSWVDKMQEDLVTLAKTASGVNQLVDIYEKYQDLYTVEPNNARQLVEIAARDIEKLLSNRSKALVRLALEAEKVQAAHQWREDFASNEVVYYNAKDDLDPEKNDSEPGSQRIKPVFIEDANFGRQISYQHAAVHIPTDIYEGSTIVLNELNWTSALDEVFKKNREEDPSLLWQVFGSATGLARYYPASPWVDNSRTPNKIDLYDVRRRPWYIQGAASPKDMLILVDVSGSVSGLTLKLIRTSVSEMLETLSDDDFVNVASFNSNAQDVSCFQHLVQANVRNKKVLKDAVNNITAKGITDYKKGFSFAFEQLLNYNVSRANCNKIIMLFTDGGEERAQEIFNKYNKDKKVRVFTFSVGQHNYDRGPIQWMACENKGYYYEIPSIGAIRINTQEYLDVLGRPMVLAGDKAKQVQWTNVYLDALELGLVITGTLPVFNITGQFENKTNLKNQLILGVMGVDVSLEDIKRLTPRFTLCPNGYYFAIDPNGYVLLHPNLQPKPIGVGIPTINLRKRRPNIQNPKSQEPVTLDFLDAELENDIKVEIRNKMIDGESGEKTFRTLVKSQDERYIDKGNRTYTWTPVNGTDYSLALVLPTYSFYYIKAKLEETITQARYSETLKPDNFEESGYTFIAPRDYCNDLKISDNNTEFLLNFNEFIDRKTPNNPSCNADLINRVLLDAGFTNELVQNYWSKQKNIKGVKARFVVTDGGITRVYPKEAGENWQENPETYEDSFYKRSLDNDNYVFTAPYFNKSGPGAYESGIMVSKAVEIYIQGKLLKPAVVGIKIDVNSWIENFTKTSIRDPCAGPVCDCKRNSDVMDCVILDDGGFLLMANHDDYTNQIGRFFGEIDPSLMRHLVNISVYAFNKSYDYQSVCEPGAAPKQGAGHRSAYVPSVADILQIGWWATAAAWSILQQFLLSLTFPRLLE
T3 sequence (P54289 957-1103 partner limits assumed): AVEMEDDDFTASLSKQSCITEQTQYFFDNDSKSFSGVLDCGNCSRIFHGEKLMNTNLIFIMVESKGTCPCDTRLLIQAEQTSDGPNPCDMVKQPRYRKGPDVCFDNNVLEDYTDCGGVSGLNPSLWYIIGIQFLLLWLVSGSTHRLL

[3] = system: 6 Hz (44 mA) seizures in mice; assay: 6 Hz (44 mA) seizure model of drug-resistant epilepsy; assay type: in vivo; details: Mus musculus, ip, pretreatment time 0.5 h, (95% confidence limits)
Procedure: Adult male Albino Swiss mice that weighed between 22 and 26 g were used in the in vivo studies. They were housed under standardized housing conditions in colony cages and had free access to food as well as tap water. The animals were left to adapt under laboratory conditions for 7 days. All procedures involving animals and their care were performed in accordance with the current European Community and Polish legislation on animal experimentation.
In the initial screening studies, four mice per group were randomly assigned to each experimental group (each mouse was used only once). To evaluate the ED50 or TD50 values, 3–4 groups that consisted of eight animals were injected with various doses of tested compounds. The protective indexes (PIs) for the compounds that were investigated and reference ASDs were calculated by dividing the TD50 value, as determined in the chimney test (or rotarod test), by the respective ED50 value, as determined in the MES, scPTZ, or 6 Hz (32 mA or 44 mA) tests (PI = TD50/ED50). The PIs is a measure of the potential therapeutic window of the tested agent.
All substances were suspended in Tween 80 (1% aqueous solution) and administered i.p. as a single injection at a dose of 10 mL/kg. […]
Taking into consideration the potent protection of 53 and 60 in the 6 Hz (32 mA) seizure model, these compounds were also evaluated by applying a higher current intensity of 44 mA. […]

Na+ channel (site 2) = Na+ channel (site 2) radioligand binding; details: rat cerebral cortex
mice = assay: Grip strength test (neuromuscular strength); assay type: in vivo; details: 50 mg/kg i.p., 0.5 h
Procedure: In studies assessing the acute effect of compounds 53 and 60 on the ivPTZ seizure threshold and neuromuscular strength, compounds 53 and 60 was suspended in a 1% solution of Tween 80 and administered i.p., at a dose of 10 mL/kg body weight. Each experimental group consisted of 9–12 animals (ivPTZ seizure threshold test) or 9−10 animals (grip strength test). The timed ivPTZ test was employed to evaluate the acute effect of compounds 53 and 60 on the seizure thresholds for (1) the first myoclonic twitch, (2) generalized clonic seizure with loss of righting reflex, and (3) forelimb tonus. The experimental procedure of the timed ivPTZ test was described in detail elsewhere. The acute effect of compounds 53 and 60 on neuromuscular strength was quantified using the grip-strength apparatus (BIOSEB, Chaville, France) according to the method that is described elsewhere. The results are depicted in Figure 2 (ivPTZ seizure threshold test, see Section 3 Results and Discussion) and Figure 3 (grip strength test, see Section 3 Results and Discussion).
Figure 3 Acute effects of 53 and 60 on the neuromuscular strength in mice. Compounds 53 and 60 were administered i.p. 0.5 h before the seizure test. Control animals received vehicle only. Each experimental group consisted of 9–10 animals. Each bar represents the mean + SEM grip strengths in millinewtons per gram of mouse body weight (mN/g).

[4] = system: scPTZ-induced seizures in mice; assay: Subcutaneous pentylenetetrazole (scPTZ) seizure test; assay type: in vivo; details: 100 mg/kg i.p., 0.5 h; for protection in scPTZ screening: four mice
Outline: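 Adult male Albino Swiss mice (22-26 g) received compounds suspended in 1% aqueous Tween 80, single i.p. injection at 10 mL/kg. ED50 from 3–4 dose groups of eight mice; protective index computed as TD50 (chimney or rotarod) divided by ED50.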

N-type Ca^2+ channel = biological target: T4, N-type Ca^2+ channel (Rattus norvegicus, UniProt Q02294); assay: N-type Ca2+ channel binding (antagonist radioligand); details: rat cerebral cortex, read-out: % Inhibition of Control Specific Binding, N-type Ca2+
T4 construct: Rat cerebral cortex; tissue Eurofins; host or cells: rat cerebral cortex
Procedure: as §1, §2
N-type Ca2+ (antagonist radioligand) […]
TRPV1 (VR1) (h) (antagonist effect) […]
as §3, §4

T1 sequence (Q13936 whole entry): as the sequence (Q13936 whole entry) above
T1 sequence (Q08289 whole entry partner): as the sequence (Q08289 whole entry partner) above
T1 sequence (P54289 25-956 partner limits assumed): as the sequence (P54289 25-956 partner limits assumed) above
T1 sequence (P54289 957-1103 partner limits assumed): as the sequence (P54289 957-1103 partner limits assumed) above

## CC(=O)NC(C(=O)N1CCN(c2cccc(OC(F)(F)F)c2)CC1)c1ccccc1 (stereo not drawn) [Compound 60, N-(2-oxo-1-phenyl-2-(4-(3-(trifluoromethoxy)phenyl)piperazin-1-yl)ethyl)acetamide]
[1]
  inhibition at 10 µM: 31%
Recombinant human CYP2C9
  influence on CYP2C9 activity: a little stronger influence, observed also at 10 µM
[2]
  inhibition at 10 µM: 7%
[3]
  ED50: 56.3 mg/kg
Na+ channel (site 2); 10 µM
  % Inhibition of Control Specific Binding, Na+ channel (site 2): 37.0 (10) %
mice
  effect on neuromuscular strength (grip strength): did not significantly affect
[4]
  scPTZ screening: number of mice protected/number of mice tested: 1/4
  protection in scPTZ screening: 25%

## CC(=O)NC(C(=O)N1CCN(c2cccc(C(F)(F)F)c2)CC1)c1ccccc1 (stereo not drawn) [Compound 53, N-(2-oxo-1-phenyl-2-(4-(3-(trifluoromethyl)phenyl)piperazin-1-yl)ethyl)acetamide]
[1]
  inhibition at 10 µM: 55%
Recombinant human CYP2C9
  influence on CYP2C9 activity: weak inhibition effect
N-type Ca^2+ channel
  inhibition at 100 µM: 1.5%
[2]
  inhibition at 10 µM: 4%
[3]
  ED50: 68 mg/kg
Na+ channel (site 2); 10 µM
  % Inhibition of Control Specific Binding, Na+ channel (site 2): 17.4%
Na+ channel (site 2); 100 µM
  % Inhibition of Control Specific Binding, Na+ channel (site 2): 75.5%
mice
  effect on neuromuscular strength (grip strength): did not significantly affect
[4]
  scPTZ screening: number of mice protected/number of mice tested: 1/4
  protection in scPTZ screening: 25%
